From patent US10183971B2, “SAA-domain-specific antibodies and peptide antagonists and use thereof to treat inflammatory diseases” (The Feinstein Institute For Medical Research, priority 2013, dated 2019) come the findings set out here.

“Also recorded” adds a separate entry of the source.

One assay concerns HMGB1 release. In words: HMGB1 release in vitro by inflammatory mediators (data not shown). The class given is cell-based.
Another assay has as its system SAA. In words: SAA-induced HMGB1 release in macrophages (Western blotting). The class given is cell-based. Particulars: in vitro. As to the method:
FIG. 5A-5C. Epitope mapping of SAA-specific antibodies using a peptide library. A, Sequence of synthetic SAA peptides (SEQ ID NO:19). […] Macrophages were stimulated with SAA in the absence or presence of different (R1, R2, R3) IgGs, and HMGB1 release was assayed by Western blotting. C, Epitope mapping by dot blot. Note that all rabbit IgGs capable of protecting against lethal endotoxemia cross-reacted with P8 peptide.
Epitope mapping of SAA-neutralizing antibodies. To test the possibility that antibodies or peptides antagonists targeting different SAA domains may divergently affect the outcomes of LSI, SAA-specific antibodies were generated, and the epitopes of these polyclonal IgGs determined using a peptide library (18-mer offset by 6) spanning the entire SAA protein (FIG. 5A). […] Following repetitive immunizations, the titers of anti-SAA IgGs were dramatically elevated in most rabbits (e.g., R1 and R3).
On the technique in general: Immunoblotting shows a protein as a band on a membrane.

On to “EGF: cytoprotective peptide (NSDSECPLSHDGYCLHDGVCMYIEALDKYACNCVVGYIGERCQYRDLKWWELR; Epidermal growth factor; UniProt P01133 971-1023, looked up)”, for which the “induction of HMGB1 release in vitro” value with HMGB1 release is listed as “unable to induce HMGB1 release”.
On the same count and under the same terms, the entry for “IL-6: inflammatory mediator, sepsis surrogate marker” is “unable to induce HMGB1 release”.
On to “IL-8: inflammatory mediator, sepsis surrogate marker”, for which the “induction of HMGB1 release in vitro” value in the assay with HMGB1 release is reported as “unable to induce HMGB1 release”.
On to “REANYIGSDKYFHARGNY (listed as Homo sapiens) [Clone P8, SAA peptide (18-mer) corresponding to residues 25-42]”, for which, in the assay with SAA, the “effect of pre-incubation with peptide on anti-SAA-IgG-mediated inhibition of SAA-induced HMGB1 release” value is on record as “impaired” and the “inhibition of SAA-induced HMGB1 release” value is listed as “dose-dependently inhibited”.
With “RSFFSFLGEAFDGARDMW (listed as Homo sapiens) [Clone P4, SAA peptide corresponding to residues 1-18]”, the “inhibition of SAA-induced HMGB1 release” value in the assay with SAA was “dose-dependently inhibited; also recorded: inhibited SAA-induced HMGB1 release”.
